Laboratory results as given in ChEMBL document CHEMBL1126305, “Synthesis and antiviral properties of (+/-)-5'-noraristeromycin and related purine carbocyclic nucleosides. A new lead for anti-human cytomegalovirus agent design” (1992).
≈ marks a conversion by molar mass, not a printed value.

Experiments:
E6SM [1] = assay: Minimum inhibitory concentration required to reduce virus induced cytopathicity by 50% was determined against HSV-2 virus in E6SM cells; format: functional; conditions: Homo sapiens
E6SM [2] = assay: Minimum inhibitory concentration required to reduce virus induced cytopathicity by 50% was determined against TK- HSV-1 virus in E6SM cells; format: functional; conditions: Homo sapiens
E6SM [3] = assay: Minimum inhibitory concentration required to reduce virus induced cytopathicity by 50% was determined against vaccinia virus in E6SM cells; format: functional; conditions: Homo sapiens
E6SM [4] = assay: Minimum inhibitory concentration required to reduce virus induced cytopathicity by 50% was determined against vesicular stomatitis virus in E6SM cells; format: functional; conditions: Homo sapiens
Homo sapiens = species: Homo sapiens; assay: (§1) Minimum inhibitory concentration required to reduce virus induced cytopathicity by 50% was determined against HCMV virus in HEL cells; format: functional
HeLa [5] = assay: Minimum inhibitory concentration required to reduce virus induced cytopathicity by 50% was determined against coxsackie B4 virus in HeLa cells; format: functional; conditions: Homo sapiens
HeLa [6] = assay: Minimum inhibitory concentration required to reduce virus induced cytopathicity by 50% was determined against polio 1 virus in HeLa cells; format: functional; conditions: Homo sapiens
HeLa [7] = assay: Minimum inhibitory concentration required to reduce virus induced cytopathicity by 50% was determined against respiratory syncytial virus in HeLa cells; format: functional; conditions: Homo sapiens
HeLa [8] = assay: Minimum inhibitory concentration required to reduce virus induced cytopathicity by 50% was determined against vesicular stomatitis virus in HeLa cells; format: functional; conditions: Homo sapiens
HEL [9] = assay: Minimum inhibitory concentration required to reduce virus induced cytopathicity by 50% was determined against TK- VZV virus in HEL cells; format: functional; conditions: Homo sapiens
HEL [10] = assay: Minimum inhibitory concentration required to reduce virus induced cytopathicity by 50% was determined against VZV virus in HEL cells; format: functional; conditions: Homo sapiens
Influenza A virus = assay: (§2) Minimum inhibitory concentration required to reduce virus induced cytopathicity by 50% was determined against influenza A virus in MDCK cells; format: functional
Influenza B virus = assay: (§3) Minimum inhibitory concentration required to reduce virus induced cytopathicity by 50% was determined against influenza B virus in MDCK cells; format: functional
Vero [11] = assay: (§4) Minimum inhibitory concentration required to reduce virus induced cytopathicity by 50% was determined against parainfluenza 3 virus in Vero cells; format: functional, Homo sapiens; conditions: Chlorocebus sabaeus
Vero [12] = assay: Minimum inhibitory concentration required to reduce virus induced cytopathicity by 50% was determined against tacaribe virus in Vero cells; format: functional, Homo sapiens; conditions: Chlorocebus sabaeus
Vero [13] = assay: Minimum inhibitory concentration required to reduce virus induced cytopathicity by 50% was determined against coxsackie B4 virus in Vero cells; format: functional; conditions: Chlorocebus sabaeus
Vero [14] = assay: Minimum inhibitory concentration required to reduce virus induced cytopathicity by 50% was determined against junin virus in Vero cells; format: functional; conditions: Chlorocebus sabaeus
Vero [15] = assay: Minimum inhibitory concentration required to reduce virus induced cytopathicity by 50% was determined against measles virus in Vero cells; format: functional; conditions: Chlorocebus sabaeus
Vero [16] = assay: Minimum inhibitory concentration required to reduce virus induced cytopathicity by 50% was determined against reo type 1 virus in Vero cells; format: functional; conditions: Chlorocebus sabaeus
Vero [17] = assay: Minimum inhibitory concentration required to reduce virus induced cytopathicity by 50% was determined against semliki forest virus in Vero cells; format: functional; conditions: Chlorocebus sabaeus
Vero [18] = assay: Minimum inhibitory concentration required to reduce virus induced cytopathicity by 50% was determined against sindbis virus in Vero cells; format: functional; conditions: Chlorocebus sabaeus
E6SM [19] = assay: Minimum inhibitory concentration required to reduce virus induced cytopathicity by 50% was determined against HSV-1 virus in E6SM cells; format: functional; conditions: Homo sapiens
MDCK [20] = assay: as §2; format: functional; conditions: Canis lupus familiaris
MDCK [21] = assay: as §3; format: functional; conditions: Canis lupus familiaris
HEL [22] = assay: as §1; format: functional; conditions: Homo sapiens
Vero [23] = assay: as §4; format: functional; conditions: Chlorocebus sabaeus

Compound	MIC (E6SM [1])	MIC (E6SM [2])	MIC (E6SM [3])	MIC (E6SM [4])	MIC (Homo sapiens)	MIC (HeLa [5])	MIC (HeLa [6])	MIC (HeLa [7])	MIC (HeLa [8])	MIC (HEL [9])	MIC (HEL [10])	MIC (Vero [11])	MIC (Vero [12])	MIC (Vero [13])	MIC (Vero [14])	MIC (Vero [15])	MIC (Vero [16])	MIC (Vero [17])	MIC (Vero [18])	MIC (E6SM [19])	other results
Oc1ncnc2c1ncn2C1C[C@H](O)[C@H](O)[C@@H]1O (some centres undefined)	300 µg/mL (≈ 1190 µM)	200 µg/mL (≈ 793 µM)	> 300 µg/mL	> 300 µg/mL	250 µg/mL (≈ 991 µM)	> 400 µg/mL	> 400 µg/mL	> 100 µg/mL	> 400 µg/mL	250 µg/mL (≈ 991 µM)	200 µg/mL (≈ 793 µM)	> 200 µg/mL	> 100 µg/mL	> 200 µg/mL	> 100 µg/mL	> 100 µg/mL	> 200 µg/mL	> 200 µg/mL	> 200 µg/mL	300 µg/mL (≈ 1190 µM)	MIC (Influenza A virus): > 100 µg/mL; MIC (Influenza B virus): > 100 µg/mL
Nc1nc(N)c2ncn(C3C[C@H](O)[C@H](O)[C@@H]3O)c2n1 (some centres undefined)	> 300 µg/mL	> 200 µg/mL	15 µg/mL (≈ 56.3 µM)	2 µg/mL (≈ 7.51 µM)	250 µg/mL (≈ 939 µM)	> 400 µg/mL	> 400 µg/mL	50 µg/mL (≈ 188 µM)	70 µg/mL (≈ 263 µM)	165 µg/mL (≈ 620 µM)	230 µg/mL (≈ 864 µM)	20 µg/mL (≈ 75.1 µM)	100 µg/mL (≈ 376 µM)	> 200 µg/mL	85 µg/mL (≈ 319 µM)	20 µg/mL (≈ 75.1 µM)	10 µg/mL (≈ 37.6 µM)	> 200 µg/mL	> 200 µg/mL	300 µg/mL (≈ 1130 µM)	MIC (MDCK [20]): > 100 µg/mL; MIC (MDCK [21]): > 100 µg/mL
Nc1nc(O)c2ncn(C3C[C@H](O)[C@H](O)[C@@H]3O)c2n1 (some centres undefined)	> 400 µg/mL	> 300 µg/mL	> 400 µg/mL	> 400 µg/mL	250 µg/mL (≈ 935 µM)	> 400 µg/mL	> 200 µg/mL	> 100 µg/mL	> 400 µg/mL	235 µg/mL (≈ 879 µM)	225 µg/mL (≈ 842 µM)	> 200 µg/mL	> 100 µg/mL	> 200 µg/mL	> 100 µg/mL	> 100 µg/mL	> 200 µg/mL	> 200 µg/mL	> 200 µg/mL	300 µg/mL (≈ 1120 µM)	MIC (MDCK [20]): > 100 µg/mL; MIC (MDCK [21]): > 100 µg/mL
NC(CCS)C(=O)Nc1ncnc2c1ncn2C1O[C@H](CO)[C@@H](O)[C@H]1O (some centres undefined)	> 400 µg/mL	> 400 µg/mL	2 µg/mL (≈ 5.2 µM)	0.7 µg/mL (≈ 1.82 µM)		> 400 µg/mL	> 400 µg/mL		2 µg/mL (≈ 5.2 µM)			0.7 µg/mL (≈ 1.82 µM)	2 µg/mL (≈ 5.2 µM)	> 100 µg/mL	2 µg/mL (≈ 5.2 µM)		2 µg/mL (≈ 5.2 µM)	> 400 µg/mL	20 µg/mL (≈ 52 µM)	> 400 µg/mL	
O=c1[nH]c(=O)n([C@H]2C[C@H](O)[C@@H](CO)O2)cc1/C=C/Br [BRIVUDINE]	10 µg/mL (≈ 30 µM)	40 µg/mL (≈ 120 µM)	7 µg/mL (≈ 21 µM)	> 400 µg/mL		> 400 µg/mL		> 400 µg/mL	> 400 µg/mL	> 10 µg/mL	0.001 µg/mL (≈ 0.003 µM)			> 400 µg/mL	> 400 µg/mL	> 400 µg/mL	> 400 µg/mL	> 400 µg/mL	> 400 µg/mL	0.02 µg/mL (≈ 0.06 µM)	
Nc1ncnc2c1ncn2[C@@H]1C=C(CO)[C@@H](O)[C@H]1O [NEOPLANOCIN A]	> 40 µg/mL	4 µg/mL (≈ 15.2 µM)	0.2 µg/mL (≈ 0.76 µM)	0.2 µg/mL (≈ 0.76 µM)		> 40 µg/mL	> 10 µg/mL	0.2 µg/mL (≈ 0.76 µM)	0.2 µg/mL (≈ 0.76 µM)	5 µg/mL (≈ 19 µM)	8 µg/mL (≈ 30.4 µM)	0.4 µg/mL (≈ 1.52 µM)	0.4 µg/mL (≈ 1.52 µM)	> 40 µg/mL	0.4 µg/mL (≈ 1.52 µM)	0.2 µg/mL (≈ 0.76 µM)	0.4 µg/mL (≈ 1.52 µM)	> 40 µg/mL	> 40 µg/mL	> 40 µg/mL	MIC (HEL [22]): 0.4 µg/mL (≈ 1.52 µM); MIC (MDCK [20]): > 20 µg/mL; MIC (MDCK [21]): > 20 µg/mL
Nc1ncnc2c1ncn2[C@@H]1C[C@H](O)[C@@H](O)[C@H]1O [NORARISTEROMYCIN]	300 µg/mL (≈ 1190 µM)	20 µg/mL (≈ 79.6 µM)	0.3 µg/mL (≈ 1.19 µM)	0.07 µg/mL (≈ 0.279 µM)	0.4 µg/mL (≈ 1.59 µM)	> 200 µg/mL	> 200 µg/mL	2 µg/mL (≈ 7.96 µM)	0.07 µg/mL (≈ 0.279 µM)	40 µg/mL (≈ 159 µM)	65 µg/mL (≈ 259 µM)	0.4 µg/mL (≈ 1.59 µM)	1 µg/mL (≈ 3.98 µM)	> 200 µg/mL	0.5 µg/mL (≈ 1.99 µM)	0.4 µg/mL (≈ 1.59 µM)	0.07 µg/mL (≈ 0.279 µM)	> 200 µg/mL	> 200 µg/mL	200 µg/mL (≈ 796 µM)	MIC (MDCK [20]): > 100 µg/mL; MIC (MDCK [21]): > 100 µg/mL
NC(=O)c1ncn([C@@H]2O[C@H](CO)[C@@H](O)[C@H]2O)n1 [RIBAVIRIN]	> 400 µg/mL	> 400 µg/mL	40 µg/mL (≈ 164 µM)	70 µg/mL (≈ 287 µM)		70 µg/mL (≈ 287 µM)	70 µg/mL (≈ 287 µM)		20 µg/mL (≈ 81.9 µM)					100 µg/mL (≈ 409 µM)			70 µg/mL (≈ 287 µM)	40 µg/mL (≈ 164 µM)	40 µg/mL (≈ 164 µM)	> 400 µg/mL	MIC (Vero [23]): 20 µg/mL (≈ 81.9 µM)
